What all share (type): cell-based, human
Test [1] concerns c-Myc mRNA. Kind of test: c-Myc mRNA level and transcription sites in A549 cells. The source says: (§1) A549 cells were exposed to vehicle, general transcription inhibitor actinomycin D or anti-c-Myc compound.
(§2) In gray, cell nuclei stained with DAPI; in red, c-Myc protein; in purple, c-Myc mRNA; in yellow, c-Myc transcription sites.

Test [2] concerns c-Myc protein. Briefly: c-Myc protein level in A549 cells.
Description: as §1, §2

Test [3] deals with c-Myc mRNA. Briefly: Fluorescent in situ hybridization (FISH) assay for c-Myc mRNA. The following applies: A549 cells, 4 hours, FIG. 3 lower panel. The method, then: A549 cells were incubated with compounds for 24 hours (FIG. 3, upper panel) and c-Myc protein detected by immunofluorescence. In parallel, A549 cells were incubated with compounds for 4 hours and c-Myc mRNA was visualized by micrscopy using c-Myc mRNA specific fluorescent-tagged probes (FIG. 3, lower panel).
A549 cells were grown in 384-wells plates (Perkin Elmer, Cat. 6057300) for 48 hours, treated with compounds for 4 hours and then fixed for 20 min in 4% paraformaldehyde. Next day, permeabilization was done for 90 min at 4° C., using 70% ethanol. Then, the cells were incubated for 10 min with 10% formamide in 10% saline-sodium citrate. Fluorescently labeled custome DNA probes that target c-Myc (Cy3, BioSearch Technologies, Cat. SMF-1063-5) and GAPDH (Cy5, BioSearch Technologies, Cat. SMF-2019-1) mRNAs were hybridized overnight at 37° C. in a dark chamber in 10% formamide. The next day, cells were washed twice with 10% formamide for 30 min. […]
Following RNA FISH experiments, images of cells were taken with Operetta (Perkin Elmer, USA), a wide-field fluorescence microscope at ×63 magnification. […] In Columbus, cells were identified by their nucleus, using the “Find Nuceli” module, cytoplasm was detected based on the FISH-channel, and single mRNAs in the cytoplasm and transcription sites in the nucleus were detected using “Find Spots” module. […]

For test [4], the system named is c-Myc. Kind of test: c-Myc immunofluorescence assay. The following applies: A549 cells; for Myc Efficacy (−LogEC50): 24 hours treatment, anti-c-Myc immunofluorescence. A digest of the protocol: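 High-content imaging (20×) of PFA-fixed A549 cells immunostained for c-Myc with DAPI nuclei, after 24 h compound treatment at increasing concentrations. Per-cell c-Myc signal in identified cell regions was plotted against dose and fitted by logistic regression to give EC50.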

The test system of test [5] is global translation. Briefly: Metabolic labeling assay (global translation, modified methionine incorporation). As to conditions: A549 cells, 4 hour pulse, FIG. 2. The method, then:
A549 cells were incubated with active compounds and metabolically labelled with fluorescent methionine for a 4 hour pulse (click-chemistry modified methionine). Cells were fixed and newly synthesized proteins detected by using click-chemistry with a fluorescent detector (FIG. 2).
A549 cells were seeded at 3,200 cells per well in complete culture medium. Plates were incubated at 37° C., 5% CO2 overnight. After 48 hours of incubation, the growth medium was aspirated, and cells were washed three times with HBSS. Metabolic labeling medium DMEM (-Cys-Met), containing 10% dialyzed FBS, 10% pencillin-streptomycin and 1% L-glutamine was added to the cells for 30 min. Then medium was replaced by metabolic labeling medium containing 25 μM L-Azidohomoalanine (AHA, ThermoFisher) and tested compounds at a final concentration of 30 μM, and cells were incubated for 4 hours at 37° C., 5% CO2. Cells were washed by HBSS at 37° C. for 15 min before fixing with 4% paraformaldehyde. Cells were washed twice with 3% BSA in PBS before permeabilization with 0.5% Triton X-100 in PBS for 20 min. The AHA staining with Alexa Fluor™ 555 alkyne was performed according to the manufacturer protocol. Images were captured with Operetta microscope (Perkin Elmer) using ×20 high NA objective lens.

Test [6] concerns A549 cells. Briefly: Metabolic labeling (L-Azidohomoalanine) of global protein synthesis in A549 cells. The source says: FIG. 2 depicts selective regulation of c-Myc translation. […] In gray, cell nuclei stained with DAPI; in yellow, L-Azidohomoalanine (AHA) metabolic labeling.

Numbered stars: 1 amine (or outer) side, 2 acyl side, 3 side chain; on linkers, the order of the positions; unused ones are H or OH. Bridge positions count the residues as written; N and C are the ends. Square brackets hold non-standard residues; d marks the D form. Peptide text beside a SMILES is read from it. I, II: the chains in the order shown. Actinocin(9to1) = Cc1c2oc3c(C)ccc(C(=O)[*:1])c3nc-2c(C(=O)[*:2])c(N)c1=O; NMeV = CN[C@H](C(=O)O)C(C)C; Sar = CNCC(=O)O

For `Cc1c2oc3c(C)ccc(C(=O)N[C@@H]4C(=O)N[C@H](C(C)C)C(=O)N5CCC[C@H]5C(=O)N(C)CC(=O)N(C)[C@@H](C(C)C)C(=O)O[C@@H]4C)c3nc-2c(C(=O)N[C@@H]2C(=O)N[C@H](C(C)C)C(=O)N3CCC[C@H]3C(=O)N(C)CC(=O)N(C)[C@@H](C(C)C)C(=O)O[C@@H]2C)c(N)c1=O` [actinomycin D] (I: T[dV]P[Sar][NMeV] / II: T[dV]P[Sar][NMeV]; ester I:1-I:C, II:1-II:C; linker I:N-II:N via Actinocin(9to1)), in test [1], the “c-Myc mRNA level” value is listed as “complete reduction” and the c-Myc transcription sites entry is listed as “complete reduction”. Further, the c-Myc protein level result in test [2] is on record as “significant decrease”. In addition, in test [3], the “c-Myc mRNA in the cytoplasm” value is recorded as “mRNA accumulation in the cytoplasm” and the “c-Myc transcription site (spots inside the nucleus)” value is reported as “inhibited transcription site”. Further, the “c-Myc protein detected by immunofluorescence” value in test [4] (24 hours, FIG. 3 upper panel) was “reduced c-Myc protein”.

With `COc1cc(-c2cn3c(n2)sc2cc(C(=O)NCCCN4CCC(F)CC4)ccc23)c(F)cc1C1CCCN1` (centres unmarked) [compound 489, 2-(2-fluoro-5-methoxy-4-(pyrrolidin-2-yl)phenyl)-N-(3-(4-fluoropiperidin-1-yl)propyl)benzo[d]imidazo[2,1-b]thiazole-7-carboxamide], the “Myc Efficacy (−LogEC50)” value in test [4] is “++ (++ ≥5 and <6)”.

On to `Cc1cc(-c2cn3c(n2)sc2cc(C(=O)NCCCN4CCC(F)CC4)ccc23)ccn1` [compound 495, N-(3-(4-fluoropiperidin-1-yl)propyl)-2-(2-methylpyridin-4-yl)benzo[d]imidazo[2,1-b]thiazole-7-carboxamide], for which the “Myc Efficacy (−LogEC50)” value in test [4] is recorded as “+++ (+++ ≥6)”.

Turning to `NC(=O)c1ccc2c(c1)sc1nc(-c3ccc([C@@H]4C[C@H](O)CN4)cc3F)cn12` [compound 520, 2-(2-fluoro-4-((2S,4S)-4-hydroxypyrrolidin-2-yl)phenyl)benzo[d]imidazo[2,1-b]thiazole-7-carboxamide], the “Myc Efficacy (−LogEC50)” value in test [4] was “++ (++ ≥5 and <6)”.

`CNC(=O)c1ccc2c(c1)sc1nc(-c3ccc([C@@H]4C[C@H](O)CN4)cc3F)cn12` [compound 521, 2-(2-fluoro-4-((2S,4S)-4-hydroxypyrrolidin-2-yl)phenyl)-N-methylbenzo[d]imidazo[2,1-b]thiazole-7-carboxamide]: the “Myc Efficacy (−LogEC50)” value in test [4] is reported as “+++ (+++ ≥6)”.

Take `CN1CC[C@@H](NC(=O)c2ccc3c(c2)sc2nc(-c4ccc([C@@H]5CCCN5)cc4F)cn23)[C@@H](F)C1` [compound 526, N-((3S,4R)-3-fluoro-1-methylpiperidin-4-yl)-2-(2-fluoro-4-(pyrrolidin-2-yl)phenyl)benzo[d]imidazo[2,1-b]thiazole-7-carboxamide]: in test [4], the “Myc Efficacy (−LogEC50)” value was “++ (++ ≥5 and <6)”.

In the case of `CN1CCC(NC(=O)c2ccc3c(c2)sc2nc(-c4ccc(C5CCNCC5)cc4F)cn23)CC1` [compound 527, 2-(2-fluoro-4-(piperidin-4-yl)phenyl)-N-(1-methylpiperidin-4-yl)benzo[d]imidazo[2,1-b]thiazole-7-carboxamide], in test [4], the “Myc Efficacy (−LogEC50)” value is on record as “+++ (+++ ≥6)”.

`CN1CCC(NC(=O)c2ccc3c(c2)sc2nc(-c4ccc(C5(O)CCNCC5)cc4F)cn23)CC1` [compound 528, 2-(2-fluoro-4-(4-hydroxypiperidin-4-yl)phenyl)-N-(1-methylpiperidin-4-yl)benzo[d]imidazo[2,1-b]thiazole-7-carboxamide]: the “Myc Efficacy (−LogEC50)” value in test [4] was “+++ (+++ ≥6)”.

Take `CN1CCC(NC(=O)c2ccc3c(c2)sc2nc(-c4ccc(C5(O)CCNC5)cc4F)cn23)CC1` (centres unmarked) [compound 530, 2-(2-fluoro-4-(3-hydroxypyrrolidin-3-yl)phenyl)-N-(1-methylpiperidin-4-yl)benzo[d]imidazo[2,1-b]thiazole-7-carboxamide]: in test [4], the “Myc Efficacy (−LogEC50)” value is “+++ (+++ ≥6)”.

Regarding `CN1C2CCC1CC(NC(=O)c1ccc3c(c1)sc1nc(-c4ccc([C@@H]5CCCN5)cc4F)cn13)C2` (some centres unmarked) [compound 531, 2-(2-fluoro-4-(pyrrolidin-2-yl)phenyl)-N-(8-methyl-8-azabicyclo[3.2.1]octan-3-yl)benzo[d]imidazo[2,1-b]thiazole-7-carboxamide], in test [4], the “Myc Efficacy (−LogEC50)” value was “++ (++ ≥5 and <6)”.

On to `NC(=O)c1ccc2c(c1)sc1nc(-c3ccc(C4CC(C(F)F)CN4)cc3F)cn12` (centres unmarked) [compound 540, 2-(4-(4-(difluoromethyl)pyrrolidin-2-yl)-2-fluorophenyl)benzo[d]imidazo [2,1-b]thiazole-7-carboxamide], for which, in test [4], the “Myc Efficacy (−LogEC50)” value is given as “+++ (+++ ≥6)”.

`CN1CCC(NC(=O)c2ccc3c(c2)sc2nc(-c4ccc(C5CC(C#N)CN5)cc4F)cn23)CC1` (centres unmarked) [compound 541, 2-(4-(4-cyanopyrrolidin-2-yl)-2-fluorophenyl)-N-(1-methylpiperidin-4-yl)benzo[d]imidazo[2,1-b]thiazole-7-carboxamide]: the “Myc Efficacy (−LogEC50)” value in test [4] is given as “+++ (+++ ≥6)”.

As to `O=C(NC1COCOC1)c1ccc2c(c1)sc1nc(-c3ccc(C4CCCN4)cc3F)cn12` (centres unmarked) [compound 545, N-(1,3-dioxan-5-yl)-2-(2-fluoro-4-(pyrrolidin-2-yl)phenyl)benzo[d]imidazo[2,1-b]thiazole-7-carboxamide], the “Myc Efficacy (−LogEC50)” value in test [4] is on record as “+++ (+++ ≥6)”.

As for `CN1CCC(NC(=O)c2ccc3c(c2)sc2nc(-c4ccc(C5CCNCC5O)cc4F)cn23)CC1` (centres unmarked) [compound 546, 2-(2-fluoro-4-(3-hydroxypiperidin-4-yl)phenyl)-N-(1-methylpiperidin-4-yl)benzo[d]imidazo[2,1-b]thiazole-7-carboxamide], the “Myc Efficacy (−LogEC50)” value in test [4] is given as “+++ (+++ ≥6)”.

With `O=C(NCCCN1CCC(F)CC1)c1ccc2c(c1)sc1nc(-c3cc4c(cc3F)CCN4)cn12` [compound 601, 2-(5-fluoroindolin-6-yl)-N-(3-(4-fluoropiperidin-1-yl)propyl)benzo[d]imidazo[2,1-b]thiazole-7-carboxamide], the “Myc Efficacy (−LogEC50)” value in test [4] is “+++ (+++ ≥6)”.

As to `C[C@@H]1C[C@@H]([C@H](O)CC2CC(=O)NC(=O)C2)C(=O)[C@@H](C)C1` [cycloheximide], in test [5], the “incorporation of modified methionine (global translation)” value is listed as “completely reduced incorporation of modified methionine”. Moreover, in test [6], the “global protein synthesis (AHA metabolic labeling)” value was “total inhibition”.

Turning to “N-(2- (dimethylamino)propyl)-2- (4- (methylcarbamoyl)phenyl) benzo[d]imidazo[2,1-b] thiazole-7-carboxamide [compound 239]”, the “Myc Efficacy (−LogEC50)” value in test [4] was “+ (+ >3 and <5)”.

Values taken from US12404283B2, “c-MYC mRNA translation modulators and uses thereof in the treatment of cancer” (Anima Biotech Inc., priority 2022, dated 2025).
